From US20160045487A1, “COMPOSITIONS AND METHODS FOR TREATING NEUROPATHY” (CHILDEREN'S MEDICAL CENTER CORPORATION, priority 2013, published 2016)

How the values were obtained:
[1] = molecular target: T1, RET (Homo sapiens, UniProt P07949+P56159); assay: RET phosphorylation phospho-tyrosine Western blot in SH-SY5Y cells; assay type: cell-based
T1 construct: endogenous in cells; host or cells: SH-SY5Y (SH-SY5Y-THpGL3) human neuroblastoma cells
From the text: One goal of these studies was to determine if XIB4035 could be used for treating SFN in humans. Using the Neuro2A (N2A) murine neuroblastoma cell line, Tokugawa et al. (supra) reported XIB4035 as a competitive agonist for the GDNF receptor GFRα1 that activates the RET receptor. Since populations of DRG sensory neurons express different GFRα receptors, thus making them preferentially responsive to the particular ligands, it was important to determine if XIB4035 was specific to GFRα1 or could act on other family members. Since PSPN has no effect on peripheral sensory neurons, the GFRα1, GFRα2, and GFRα3 receptors were the focus of these studies. The SH-SY5Y, a human neuroblastoma cell line expressing mRNA for GFRα1, GFRα2, and GFRα3, was used to perform two cell-based assays; immunoblots measuring RET phosphorylation and a luciferase reporter assay using the tyrosine hydroxylase (TH) promoter. For the latter two paradigms were used, either overnight treatment immediately followed by luciferase activity measurements or 10 minute treatments followed by washout and overnight incubation prior to measurements. GDNF and ARTN induced robust TH-luciferase activity in a dose dependent manner (FIG. 3E). Because the responses to GDNF and ARTN were more robust, these two factors were chosen for further analysis.
Since the original report argued that XIB4035 displaces GDNF binding to GFRα1 expressing cells (FIG. 2 in Tokugawa et al., Neurochem Int 42, 81-86 (2003).), potentially ARTN, on TH-luciferase activity and Ret phosphorylation. […] In this experiment, cells were treated with GDNF or ARTN with or without XIB4035 for 10 minutes and cell lysates were either collected immediately or treatment was washed out and replaced with growth media for 30, 60, or 120 minutes. […] Therefore, we tested cells expressing only one GFRα using either N2A cells (which express RET) transfected with GFRα1 or GFRα3 expression constructs, or B(E)2-C cells, which express only GFRα2 together with RET. […]

[2] = molecular target: T2, TrkA (Rattus norvegicus, UniProt P35739); assay: NGF-induced TrkA phosphorylation in PC12 cells; assay type: cell-based; details: 50 ng/ml NGF with 20 μM XIB4035, 10 minutes; 15, 30 or 45 minutes after
T2 construct: endogenous in cells; host or cells: PC12 (PC-12) cells
Experimental: PC12 cells were treated with 50 ng/ml of NGF with or without 20 μM XIB4035 for 10 minutes. Cell lysates were either collected immediately or after cells were incubated in growth media for additional 15, 30, or 45 minutes. Cell lysates were subjected to immunoprecipitation using anti-TrkA antibodies and analysis via phospho-tyrosine Western blot. TrkA phosphorylation is not prolonged by addition of XIB4035.
For phosphorylated Ret immunoblot experiments, cells were treated with various combinations of molecules for 10 minutes and either collected immediately or had treatment washed out and returned to control treatment media for the times indicated prior to cell collection. Lysates were collected in buffer containing: 50 mM Tris-HCL, 1% TX-100, 0.25% Deoxycholic acid, 150 mM sodium chloride, 1 mM EDTA, 0.1 mM sodium fluoride, 0.1 mM sodium pyrophosphate, 0.02 mM sodium orthovanadate, and protease inhibitors Immunoblots were blocked in 5% bovine serum albumin in tris-buffered saline+0.2% Tween 20+0.1 mM sodium fluoride, 0.1 mM sodium pyrophosphate, and 0.02 mM sodium orthovanadate and probed in blocking solution using anti-phospotyrosine (4G10) mouse monoclonal antibody (1:2000; EMD Milipore Corp., Billerica, Mass.). Secondary detection was performed in blocking solution using HRP-conjugated goat-anti-mouse antibodies (1:1000; MP Biolomedicals LLC, Solon, Ohio). […]

[3] = test system: wild type mice; assay: Electron microscopy of sciatic nerve Remak bundles, wild type mice; assay type: in vivo, mouse; details: WT mice; XIB4035 cream 4 weeks
Experimental: As a first test, a cream containing XIB4035 (1.5 mM) was applied directly to the hind paws of GFAP-DN-erbB4 and wild type mice twice daily for a period of 4 weeks starting prior to symptom onset (P21). Mice of both genotypes were also treated with the base cream containing no drug for control. Mice were tested for responses to a noxious thermal stimulus prior to the initiation of treatment and every 7 days for the duration of the experiment.
The cream containing XIB4035 (1.5 mM, ZereneX Molecular Ltd., Manchester, UK) consisted of N-methyl-pyrrolidone (6.25%), isopropyl myristate (6.25%) and petroleum jelly (87.5%). Control cream had the same ingredients without XIB4035. Cream was applied twice daily to the hind paws of mice starting at P21 for a period of 4 weeks for prophylactic treatment of GFAP-DN-erbB4. Diabetic mice were treated twice daily for 8 weeks after streptozotocin (STZ) injection prior to onset of hyperglycemia and for another 8 weeks during neuropathy testing. Cream treatment in therapeutic studies using GFAP-DN-erbB4 mice was performed twice daily beginning after onset of SFN at P28 and either continued for 5 weeks (chronic treatment) or 1 week (acute treatment).
Tissue was prepared as in (Lacomis, supra). Briefly, mice were perfused intracardially with 2% paraformaldehyde, 2.5% gluteraldehyde and 0.03% picric acid in 0.1 M cacodylate buffer (pH 7.2). […]

T1 sequence (P07949 29-1114): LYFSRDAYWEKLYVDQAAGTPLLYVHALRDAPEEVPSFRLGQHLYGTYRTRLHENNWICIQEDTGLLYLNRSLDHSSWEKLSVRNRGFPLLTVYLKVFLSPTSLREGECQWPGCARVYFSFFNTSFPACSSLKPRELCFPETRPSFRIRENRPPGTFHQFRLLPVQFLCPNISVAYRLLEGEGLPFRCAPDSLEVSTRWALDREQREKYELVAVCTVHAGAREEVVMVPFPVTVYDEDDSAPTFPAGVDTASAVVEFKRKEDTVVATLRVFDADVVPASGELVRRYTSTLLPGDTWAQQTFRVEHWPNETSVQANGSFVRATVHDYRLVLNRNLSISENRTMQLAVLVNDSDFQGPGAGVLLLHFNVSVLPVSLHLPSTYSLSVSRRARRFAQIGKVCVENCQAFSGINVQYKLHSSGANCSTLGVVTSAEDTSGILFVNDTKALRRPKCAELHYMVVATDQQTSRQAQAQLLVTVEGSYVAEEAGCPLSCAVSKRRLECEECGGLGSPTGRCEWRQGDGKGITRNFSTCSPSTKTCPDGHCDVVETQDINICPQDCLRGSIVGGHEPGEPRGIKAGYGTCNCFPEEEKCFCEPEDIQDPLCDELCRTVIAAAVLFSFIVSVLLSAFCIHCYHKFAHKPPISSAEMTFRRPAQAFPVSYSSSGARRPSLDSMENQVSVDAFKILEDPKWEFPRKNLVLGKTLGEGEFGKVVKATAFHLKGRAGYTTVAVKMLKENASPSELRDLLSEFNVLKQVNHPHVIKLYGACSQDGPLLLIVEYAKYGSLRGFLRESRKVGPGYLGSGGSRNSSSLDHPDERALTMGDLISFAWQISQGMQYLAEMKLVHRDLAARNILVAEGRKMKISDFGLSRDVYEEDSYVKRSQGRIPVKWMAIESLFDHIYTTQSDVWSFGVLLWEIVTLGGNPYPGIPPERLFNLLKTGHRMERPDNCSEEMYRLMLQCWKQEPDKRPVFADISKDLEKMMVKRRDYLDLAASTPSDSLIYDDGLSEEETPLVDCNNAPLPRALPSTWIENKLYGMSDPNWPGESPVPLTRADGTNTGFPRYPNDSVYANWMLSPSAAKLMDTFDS
T1 sequence (P56159 25-429 limits assumed): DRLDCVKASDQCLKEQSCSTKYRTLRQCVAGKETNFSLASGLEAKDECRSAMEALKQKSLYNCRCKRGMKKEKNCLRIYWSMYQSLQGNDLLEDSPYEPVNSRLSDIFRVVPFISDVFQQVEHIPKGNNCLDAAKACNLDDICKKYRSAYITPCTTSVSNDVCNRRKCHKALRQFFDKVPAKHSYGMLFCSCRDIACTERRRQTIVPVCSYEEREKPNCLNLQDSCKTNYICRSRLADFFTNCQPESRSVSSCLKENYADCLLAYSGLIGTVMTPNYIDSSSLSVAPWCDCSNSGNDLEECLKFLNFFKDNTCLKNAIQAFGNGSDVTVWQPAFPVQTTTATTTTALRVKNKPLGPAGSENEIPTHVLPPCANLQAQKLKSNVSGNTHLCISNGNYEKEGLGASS
T2 sequence (P35739 33-799): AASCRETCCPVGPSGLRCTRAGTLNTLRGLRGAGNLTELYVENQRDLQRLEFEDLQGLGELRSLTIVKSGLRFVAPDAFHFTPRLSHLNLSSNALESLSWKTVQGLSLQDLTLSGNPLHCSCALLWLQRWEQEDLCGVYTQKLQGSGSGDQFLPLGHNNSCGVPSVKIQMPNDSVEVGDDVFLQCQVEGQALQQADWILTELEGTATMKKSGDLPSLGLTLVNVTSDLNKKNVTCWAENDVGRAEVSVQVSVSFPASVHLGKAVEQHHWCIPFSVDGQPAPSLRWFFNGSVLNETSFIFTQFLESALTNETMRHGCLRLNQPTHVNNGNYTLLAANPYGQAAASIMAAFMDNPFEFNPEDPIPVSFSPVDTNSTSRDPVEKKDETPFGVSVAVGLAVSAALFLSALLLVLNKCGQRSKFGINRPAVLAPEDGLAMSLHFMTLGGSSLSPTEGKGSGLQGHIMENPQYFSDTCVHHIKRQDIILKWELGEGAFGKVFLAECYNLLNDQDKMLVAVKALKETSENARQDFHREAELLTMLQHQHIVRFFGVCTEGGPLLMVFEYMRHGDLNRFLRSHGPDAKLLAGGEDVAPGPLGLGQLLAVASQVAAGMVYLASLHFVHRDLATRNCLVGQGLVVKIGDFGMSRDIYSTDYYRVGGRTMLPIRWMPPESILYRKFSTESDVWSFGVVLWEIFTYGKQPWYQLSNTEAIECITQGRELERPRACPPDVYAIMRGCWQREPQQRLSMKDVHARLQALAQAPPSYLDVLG

In the case of `CCN(CC)CCCC(C)Nc1cc(/C=C/c2ccccc2Cl)nc2cc(Cl)ccc12` (centres unmarked) [XIB4035, N4-{7-chloro-2-[(E)-2-(2-chloro-phenyl)-vinyl]-quinolin-4-yl}-N1,N1-diethyl-pentane-1,4-diamine], the “duration of ligand-induced RET phosphorylation after washout” value ([1]; 20 μM XIB4035 with 2 nM GDNF or 1 nM ARTN, 10 minutes treatment) is reported as “at least 120 minutes”, the “induction of RET phosphorylation” value ([1]; XIB4035 alone, various concentrations, two or 10 minutes) is reported as “failed to induce RET phosphorylation” and the “NGF-induced TrkA phosphorylation” value [2] is reported as “not prolonged”. For the same compound, the c-fiber area [3] was 1.81 ± 0.06 µm² and the c-fibers/Remak bundle [3] was 8.80 ± 0.52.
